Molecular target: amyloid β (Aβ42) (Homo sapiens, UniProt P05067)
Assay: 1H-15N SOFAST-HMQC NMR chemical shift perturbation
Assay type: biochemical

Chain of amyloid β (Aβ42) (P05067 672-713): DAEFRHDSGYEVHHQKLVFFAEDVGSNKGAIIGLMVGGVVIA

Molecule `COc1cc(OC)c(C(=O)/C=C/c2ccccc2)c(O)c1O` [DDC, 2′,3′-dihydroxy-4′,6′-dimethoxychalcone] has an IC50 of 10.6 ± 1.3 µM.

— paper PMC9709778 (RSC Chemical Biology, 2022)
